According to patent publication USRE48711E1, “Apoptosis signal-regulating kinase inhibitors” (Gilead Sciences, Inc., priority 2009, dated 2021):

molecular target: ASK1 (Apoptosis Signal-Regulating Kinase 1) (Homo sapiens (Human), UniProt Q99683); assay: ASK1 (Apoptosis Signal-Regulating Kinase 1) TR-FRET Kinase Assay (Biochemical IC50); details: TR-FRET, biotin-MBP substrate, 20 min pre-incubation, ATP added as 300 μM solution
Sequence (Q99683 649-946): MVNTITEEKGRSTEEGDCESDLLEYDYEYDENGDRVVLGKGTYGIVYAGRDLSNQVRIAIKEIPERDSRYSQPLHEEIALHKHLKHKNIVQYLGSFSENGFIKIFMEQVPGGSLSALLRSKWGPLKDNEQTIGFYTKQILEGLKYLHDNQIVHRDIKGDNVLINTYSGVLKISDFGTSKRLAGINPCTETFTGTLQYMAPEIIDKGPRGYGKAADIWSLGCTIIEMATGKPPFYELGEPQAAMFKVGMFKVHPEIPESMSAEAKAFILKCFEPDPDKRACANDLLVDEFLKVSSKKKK

IC50 | SMILES
8 nM | O=C(Nc1cccc(-c2nncn2C2CC2)c1)c1cc(-c2ccc(C3CC3)nc2)ccn1 [Example 50, 6-cyclopropyl-N-(3-(4-cyclopropyl-4H-1,2,4-triazol-3-yl)phenyl)-3,4′-bipyridine-2′-carboxamide]
8 nM | NC(=O)c1ccc(-c2ccnc(C(=O)Nc3cccc(-c4nncn4C4CC4)c3)c2)cn1 [Example 51, N2′-(3-(4-cyclopropyl-4H-1,2,4-triazol-3-yl)phenyl)-3,4′-bipyridine-2′,6-dicarboxamide]
12 nM | O=C(Nc1cccc(-c2nncn2C2CC2)c1)c1cc(-c2ccc(C(F)(F)F)nc2)ccn1 [Example 52, N-(3-(4-cyclopropyl-4H-1,2,4-triazol-3-yl)phenyl)-6-(trifluoromethyl)-3,4′-bipyridine-2′-carboxamide]
11 nM | Cc1ccc(-c2ccnc(C(=O)Nc3cccc(-c4nncn4C4CC4)c3)c2)cn1 [Example 53, N-(3-(4-cyclopropyl-4H-1,2,4-triazol-3-yl)phenyl)-6-methyl-3,4′-bipyridine-2′-carboxamide]
69 nM | O=C(Nc1cccc(-c2nncn2C2CC2)c1)c1cc(-c2ccc(OCC(F)(F)F)nc2)ccn1 [Example 56, N-(3-(4-cyclopropyl-4H-1,2,4-triazol-3-yl)phenyl)-6-(2,2,2-trifluoroethoxy)-3,4′-bipyridine-2′-carboxamide]
44 nM | O=C(Nc1cccc(-c2nncn2C2CC2)c1)c1cc(-c2cncc(C(F)(F)F)c2)ccn1 [Example 59, N-(3-(4-cyclopropyl-4H-1,2,4-triazol-3-yl)phenyl)-5-(trifluoromethyl)-3,4′-bipyridine-2′-carboxamide]
23 nM | O=C(Nc1cccc(-c2nncn2C2CC2)c1)c1cc(-c2cncc(F)c2)ccn1 [Example 60, N-(3-(4-cyclopropyl-4H-1,2,4-triazol-3-yl)phenyl)-5-fluoro-3,4′-bipyridine-2′-carboxamide]

The remaining lines, values behind:

SMILES | IC50
COc1ncc(-c2ccnc(C(=O)Nc3cccc(-c4nncn4C4CC4)c3)c2)c(OC)n1 [Example 49, N-(3-(4-cyclopropyl-4H-1,2,4-triazol-3-yl)phenyl)-4-(2,4-dimethoxypyrimidin-5-yl)picolinamide] | 8 nM
O=C(Nc1cccc(-c2nncn2C2CC2)n1)c1cc(-c2cccnc2)ccn1 [Example 54, N-(6-(4-cyclopropyl-4H-1,2,4-triazol-3-yl)pyridin-2-yl)-3,4′-bipyridine-2′-carboxamide] | 5 nM
C[C@H]1C[C@@H]1n1cnnc1-c1cccc(NC(=O)c2cc(-c3cccnc3)ccn2)c1 [Example 55, N-(3-(4-((1S,2S)-2-methylcyclopropyl)-4H-1,2,4-triazol-3-yl)phenyl)-3,4′-bipyridine-2′-carboxamide] | 24 nM
Cc1ccncc1-c1ccnc(C(=O)Nc2cccc(-c3nncn3C3CC3)c2)c1 [Example 57, N-(3-(4-cyclopropyl-4H-1,2,4-triazol-3-yl)phenyl)-4-methyl-3,4′-bipyridine-2′-carboxamide] | 244 nM
O=C(Nc1cccc(-c2nncn2CC(F)(F)F)c1)c1cc(-c2cccnc2)ccn1 [Example 58, N-(3-(4-(2,2,2-trifluoroethyl)-4H-1,2,4-triazol-3-yl)phenyl)-3,4′-bipyridine-2′-carboxamide] | 290 nM
O=C(Nc1cccc(-c2nncn2CC2(O)CC2)c1)c1cc(-c2cccnc2)ccn1 [Example 61, N-(3-(4-((1-hydroxycyclopropyl)methyl)-4H-1,2,4-triazol-3-yl)phenyl)-3,4′-bipyridine-2′-carboxamide] | 174 nM
C[C@@H](n1cnnc1-c1cccc(NC(=O)c2cc(-c3cccnc3)ccn2)c1)C(F)(F)F [Example 62, (R)-N-(3-(4-(1,1,1-trifluoropropan-2-yl)-4H-1,2,4-triazol-3-yl)phenyl)-3,4′-bipyridine-2′-carboxamide] | 1240 nM
C[C@H](n1cnnc1-c1cccc(NC(=O)c2cc(-c3cccnc3)ccn2)c1)C(F)(F)F [Example 63, (S)-N-(3-(4-(1,1,1-trifluoropropan-2-yl)-4H-1,2,4-triazol-3-yl)phenyl)-3,4′-bipyridine-2′-carboxamide] | 21 nM
